# Reference: ChEMBL document CHEMBL5356986, “Research status of indole-modified natural products” (RSC Med Chem, 2023)
# pIC50: −log10 of the molar value.
# What was measured:
# [1] = target: Prostaglandin G/H synthase 2 (Homo sapiens, UniProt P35354); experiment: Inhibition of COX-2 (unknown origin)
# [2] = test system: MCF7; experiment: Antiproliferative activity against human MCF7 cells assessed as inhibition of cell growth by CCK8 assay; assay type: functional, cell-based
# [3] = test system: MDA-MB-453; experiment: Antiproliferative activity against human MDA-MB-453 cells assessed as inhibition of cell growth incubated for 48 hrs by MTT assay; assay type: functional, cell-based; settings: MDA-MB-453, 48 h
# [4] = test system: MDA-MB-231; experiment: Antiproliferative activity against human MDA-MB-231 cells assessed as reduction in cell viability incubated for 48 hrs by MTT assay; assay type: functional, cell-based; settings: MDA-MB-231, 48 h
# [5] = test system: Trichophyton mentagrophytes; experiment: Antifungal activity against Trichophyton mentagrophytes assessed as inhibition of microbial growth; assay type: functional
# [6] = test system: Nannizzia gypsea; experiment: Antifungal activity against Microsporum gypseum assessed as fungal growth inhibition; assay type: functional
# [7] = test system: Trichophyton mentagrophytes; experiment: Antifungal activity against Trichophyton mentagrophytes assessed as inhibition of fungal growth incubated for 48 hrs by serial plate dilution method; assay type: functional
# [8] = test system: HepG2; experiment: Antiproliferative activity against human HepG2 cells assessed as reduction in cell viability incubated for 48 hrs by MTT assay; assay type: functional, cell-based; settings: HepG2, 48 h
# [9] = test system: HeLa; experiment: Cytotoxicity against human HeLa cells assessed as cell growth inhibition incubated for 24 hrs by MTT assay; assay type: functional, cell-based
# [10] = target: Mu-type opioid receptor (Homo sapiens, UniProt P35372); experiment: Inhibition of mu opioid receptor (unknown origin)
# Mu-type opioid receptor, sequence (P35372 whole entry): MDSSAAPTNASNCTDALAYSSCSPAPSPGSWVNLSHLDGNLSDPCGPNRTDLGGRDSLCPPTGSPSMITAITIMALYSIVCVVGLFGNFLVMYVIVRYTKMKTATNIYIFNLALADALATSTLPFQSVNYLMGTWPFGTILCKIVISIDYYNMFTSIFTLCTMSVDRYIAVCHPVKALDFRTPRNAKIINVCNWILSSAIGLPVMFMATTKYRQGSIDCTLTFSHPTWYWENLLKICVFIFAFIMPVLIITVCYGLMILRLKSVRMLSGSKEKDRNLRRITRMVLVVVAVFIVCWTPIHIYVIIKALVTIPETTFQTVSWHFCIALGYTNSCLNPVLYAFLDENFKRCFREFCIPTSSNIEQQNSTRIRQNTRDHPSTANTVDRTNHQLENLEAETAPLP
# [11] = test system: PC-3; experiment: Antiproliferative activity against human PC-3 cells assessed as reduction in cell growth measured after 24 hrs by MTT assay; assay type: functional, cell-based; settings: PC-3, 24 h
# [12] = test system: HeLa; experiment: Cytotoxicity against human HeLa cells assessed as reduction in cell viability incubated for 48 hrs by MTT assay; assay type: functional, cell-based
# [13] = test system: Caco-2; experiment: Antiproliferative activity against human Caco-2 cells incubated for 96 hrs by MTT assay; assay type: functional, cell-based; settings: Caco-2, 96 h
# [14] = target: T1, Alpha glucosidase (Homo sapiens, UniProt O43451+P10253+P14410+Q2M2H8); experiment: Inhibition of Alpha-glucosidase (unknown origin) using p-nitrophenyl glucopyranoside as substrate by UV based microplate reader analysis; assay type: protein assay
# [15] = test system: SMMC-7721; experiment: Cytotoxicity against human SMMC-7721 cells assessed as reduction in cell viability; assay type: functional, cell-based
# [16] = test system: MCF7; experiment: Antiproliferative activity against human MCF7 cells assessed as reduction in cell viability incubated for 120 hrs by MTT assay; assay type: functional, cell-based; settings: MCF7, 120 h
# [17] = test system: A549; experiment: Antiproliferative activity against human A549 cells assessed as reduction in cell viability incubated for 48 hrs by MTT assay; assay type: functional, cell-based; settings: A549, 48 h
# [18] = test system: HeLa; experiment: Antiproliferative activity against human HeLa cells assessed as reduction in cell growth; assay type: functional, cell-based
# [19] = test system: K562; experiment: Antiproliferative activity against human K562 cells assessed as cell growth inhibition by MTT assay; assay type: functional, cell-based
# [20] = test system: A549; experiment: Antiproliferative activity against human A549 cells assessed as reduction in cell growth incubated for 72 hrs by MTT assay; assay type: functional, cell-based; settings: A549, 72 h
# [21] = test system: Leishmania donovani; experiment: Antileishmanial activity against Leishmania donovani assessed as parasite growth inhibition; assay type: functional, organism-based
# [22] = Antioxidant activity assessed as DPPH radical scavenging activity; assay type: functional
# [23] = test system: A549; experiment: Cytotoxicity against human A549 cells assessed as reduction in cell viability by MTS assay; assay type: functional, cell-based
# [24] = test system: HepG2; experiment: Cytotoxicity against human HepG2 cells assessed as reduction in cell viability measured after 48 hrs by MTT colorimetric based assay; assay type: functional; settings: HepG2, 48 h
# [25] = test system: SGC-7901; experiment: Cytotoxicity against human SGC-7901 cells assessed as reduction in cell viability measured after 48 hrs by MTT colorimetric assay; assay type: functional, cell-based; settings: SGC-7901, 48 h
# [26] = test system: HepG2; experiment: Cytotoxicity against human HepG2 cells assessed as cell growth inhibition; assay type: functional, cell-based
# [27] = target: T1, Alpha glucosidase; experiment: Inhibition of Alpha-glucosidase (unknown origin) spectrophotometric analysis; assay type: protein assay
# [28] = test system: HOP-92; experiment: Growth inhibition against human HOP-92 cells incubated for 48 hrs by sulforhodamine B assay; assay type: functional
# [29] = target: Acetylcholinesterase (Homo sapiens, UniProt P22303); experiment: Inhibition of Acetylcholinesterase (unknown origin)
# Acetylcholinesterase, sequence (P22303 whole entry): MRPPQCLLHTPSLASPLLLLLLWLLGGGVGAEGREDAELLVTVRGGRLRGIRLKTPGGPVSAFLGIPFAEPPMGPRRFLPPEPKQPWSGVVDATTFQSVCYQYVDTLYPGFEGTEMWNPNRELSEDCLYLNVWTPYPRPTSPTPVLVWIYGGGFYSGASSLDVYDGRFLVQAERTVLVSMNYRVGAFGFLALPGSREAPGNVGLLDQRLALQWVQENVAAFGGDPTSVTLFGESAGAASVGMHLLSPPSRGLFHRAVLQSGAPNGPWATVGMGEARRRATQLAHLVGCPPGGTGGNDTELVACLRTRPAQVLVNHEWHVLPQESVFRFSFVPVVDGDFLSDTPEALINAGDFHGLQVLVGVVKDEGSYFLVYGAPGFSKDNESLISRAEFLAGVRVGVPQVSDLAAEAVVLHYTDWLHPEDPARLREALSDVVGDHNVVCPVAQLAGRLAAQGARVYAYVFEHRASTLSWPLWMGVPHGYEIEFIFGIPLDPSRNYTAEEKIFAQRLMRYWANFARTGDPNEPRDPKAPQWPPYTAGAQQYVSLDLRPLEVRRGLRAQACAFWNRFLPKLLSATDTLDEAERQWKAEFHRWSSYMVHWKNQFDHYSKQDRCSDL
# Prostaglandin G/H synthase 2, sequence (P35354 whole entry): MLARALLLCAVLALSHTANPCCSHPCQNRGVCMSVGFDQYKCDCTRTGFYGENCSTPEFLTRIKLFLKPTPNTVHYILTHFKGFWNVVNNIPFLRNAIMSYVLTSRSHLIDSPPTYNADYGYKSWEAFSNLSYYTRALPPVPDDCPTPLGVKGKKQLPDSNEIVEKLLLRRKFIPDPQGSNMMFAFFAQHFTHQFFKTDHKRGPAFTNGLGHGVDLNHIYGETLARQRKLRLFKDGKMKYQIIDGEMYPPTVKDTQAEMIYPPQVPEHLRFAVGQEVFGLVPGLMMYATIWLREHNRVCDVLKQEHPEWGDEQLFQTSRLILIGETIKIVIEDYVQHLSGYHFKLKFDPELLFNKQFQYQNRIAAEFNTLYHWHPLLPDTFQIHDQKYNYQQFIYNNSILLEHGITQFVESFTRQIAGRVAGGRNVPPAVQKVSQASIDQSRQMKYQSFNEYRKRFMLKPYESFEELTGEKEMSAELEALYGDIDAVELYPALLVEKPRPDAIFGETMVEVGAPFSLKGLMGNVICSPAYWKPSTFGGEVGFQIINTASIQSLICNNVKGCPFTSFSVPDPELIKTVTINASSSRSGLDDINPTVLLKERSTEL
compound,measurement,setting,value
CC1=NN(c2ccccc2)C(=O)/C1=C\c1cn(CCCOc2cc(O)c3c(=O)cc(-c4ccccc4)oc3c2)c2ccccc12,pIC50,[1],6.15
C[C@]12CC[C@H]3[C@@H](CC=C4C[C@@H](O)CC[C@@H]43)[C@@H]1CC/C2=N\N=C\c1c[nH]c2ccccc12,pIC50,[2],5.97
same,pIC50,[3],8.00
same,pIC50,[4],8.32
CCOc1c(Br)cc(/C=C/C(=O)c2c[nH]c3ccccc23)cc1OC,MIC,[5],4 µg/mL
same,MIC,[6],0.25 µg/mL
same,MIC,[7],2 µg/mL
CC(C)[C@@H](C)/C=C/[C@@H](C)[C@H]1CC[C@@H]2[C@]1(C)CC[C@H]1[C@]23C=C[C@]2(C[C@@H](O)CC[C@]12C)OO3 [ERGOSTEROL PEROXIDE],pIC50,[8],4.63
same,pIC50,[2],4.74
same,pIC50,[9],4.71
O=C(N[C@@H]1CC[C@@]2(O)[C@H]3Cc4ccc(O)c5c4[C@@]2(CCN3CC2CC2)[C@H]1O5)c1cc2ccccc2[nH]1,pIC50,[10],9.68
C[C@]12CC[C@H]3[C@]4(C=C[C@]5(C[C@@H](O)CC[C@]35C)OO4)[C@@H]1CC/C2=N\N=C1/C(=O)Nc2ccc(Cl)cc21,pIC50,[8],5.10
same,pIC50,[2],5.04
same,pIC50,[9],5.24
COc1cc(/C=C/C(=O)CC(=O)/C=C/c2ccc(O)c(OC)c2)ccc1O [CURCUMIN],pIC50,[11],4.91
same,pIC50,[12],4.59
same,pIC50,[13],4.32
C=C(C)[C@@H](C)CC[C@@H](C)[C@H]1CC[C@@]2(C)[C@@H]3CC[C@H]4[C@H](C)C(=O)CC[C@@]45C[C@@]35CC[C@]12C,IC50,[14],603.8 µM
Cc1ccc2[nH]c3c(c2c1)C[C@]1(C)[C@H]2CC=C4[C@@H]5[C@@H](C)[C@H](C)CC[C@]5(C(=O)NCCCN(C)C)CC[C@@]4(C)[C@]2(C)CC[C@H]1C3(C)C,pIC50,[15],5.97
COc1cc([C@@H]2c3cc4c(cc3[C@@H](O[C@@H]3O[C@@H]5CO[C@@H](C)O[C@H]5[C@H](O)[C@H]3O)[C@H]3COC(=O)[C@H]23)OCO4)cc(OC)c1O [ETOPOSIDE],pIC50,[16],5.59
same,pIC50,[17],5.64
same,pIC50,[18],5.59
same,pIC50,[19],5.76
same,pIC50,[20],5.00
O=C(CCC(c1c(Cl)cccc1Cl)c1c[nH]c2ccccc12)c1c(O)c2ccccc2oc1=O (stereo not drawn),IC50,[21],95 µg/mL
same,pIC50,[22],4.87
CC(C)=CCC[C@](C)(O)[C@H]1CC[C@@](C)([C@H]2CC[C@H]3[C@H]2CC[C@H]2C(C)(C)c4[nH]c5ccc(Br)cc5c4C[C@]32C)O1,pIC50,[23],4.87
CC(C)COC(=O)[C@]12CC[C@@H](C)[C@H](C)[C@H]1C1=CC(=O)[C@@H]3[C@@]4(C)Cc5c([nH]c6ccc(Cl)cc56)C(C)(C)[C@@H]4CC[C@@]3(C)[C@]1(C)CC2,pIC50,[24],5.51
same,pIC50,[25],5.51
same,pIC50,[26],5.51
CCOc1c(Br)cc(/C=C/C(=O)c2cc3ccccc3n2C)cc1OC,pIC50,[20],5.37
C[C@]12CC[C@H](OC(=O)[C@H](N)c3c[nH]c4ccccc34)C[C@H]1CC[C@@H]1[C@@H]2[C@H](N)C(=O)[C@]2(C)[C@@H](c3ccc(=O)oc3)CC[C@]12O,pIC50,[2],4.94
same,pIC50,[3],7.97
same,pIC50,[4],7.57
COc1ccc2c(CSC(=S)NCCc3c[nH]c4ccccc34)cc(=O)oc2c1,IC50,[27],85 µM
Cc1cc(=O)oc2c(C)c(O)c(-c3cc4ccc(F)cc4[nH]3)cc12,GI50,[28],0.95 µM
O=C1Cc2cc(OCc3ccc(F)cc3)ccc2C=C1C(=O)NCCc1c[nH]c2ccccc12,pIC50,[29],6.80
COc1cc(/C=C/C(=O)/C=C/c2c[nH]c3ccccc23)ccc1O,pIC50,[13],5.10
